# Biological target: T1, SHP2 protein (Homo sapiens, UniProt Q06124)
# T1 sequence (Q06124 1-593): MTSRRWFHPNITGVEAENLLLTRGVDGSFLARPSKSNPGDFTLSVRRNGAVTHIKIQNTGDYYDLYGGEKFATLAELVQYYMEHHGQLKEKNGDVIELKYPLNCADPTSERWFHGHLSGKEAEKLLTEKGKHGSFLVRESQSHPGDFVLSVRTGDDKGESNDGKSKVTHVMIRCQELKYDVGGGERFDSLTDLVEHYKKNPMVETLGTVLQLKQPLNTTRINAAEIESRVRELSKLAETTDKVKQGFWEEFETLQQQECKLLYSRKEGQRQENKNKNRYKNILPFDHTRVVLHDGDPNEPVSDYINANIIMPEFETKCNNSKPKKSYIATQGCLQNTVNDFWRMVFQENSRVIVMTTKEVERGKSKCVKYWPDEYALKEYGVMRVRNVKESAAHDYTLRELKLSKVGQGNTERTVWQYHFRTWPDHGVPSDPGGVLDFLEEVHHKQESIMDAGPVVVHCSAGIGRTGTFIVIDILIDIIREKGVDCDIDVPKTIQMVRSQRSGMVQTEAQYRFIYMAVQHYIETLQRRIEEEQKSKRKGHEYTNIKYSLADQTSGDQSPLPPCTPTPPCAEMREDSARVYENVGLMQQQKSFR
# Experiment: Degradation activity on SHP2 protein in MV-411 cells (Western blot, DC50)
# Type: cell-based
# Parameters: endogenous in cells
# Details: MV411 cells, 24 hours, read-out: Degradation activity for differenct cell lines MV411 (DC50)
# Protocol: • MV-411 cell line (COBIER, CBP-60522) • FBS (GEMINI, Cat. No. 900-108) • 0.01M PBS (Biosharp, Cat. No. 162262) • IMDM (Hyclone, Cat. No. SH30228.01) • Penicillin-Streptomycin (Gibco, Cat. No. 15140122) • DMSO (Sigma, Cat. No. D5879) • Centrifuge Tube, 15 ml (Excell Bio, Cat. No. CS015-0001) • Cell Culture Dish, (WHB, Cat. No. CS016-0128) • 12-well cell culture cluster (Corning, Cat. No. 3513) • RIPA lysate buffer (Thermo, Cat. No. 89900) • Protein Loding Buffer (Beyotime, Cat. No. P0015L) • BCA Protein Assay Kit (EpiZyme, Cat. No. ZJ102) • SDS-PAGE Fast Preparation Kit (EpiZyme, Cat. No. PG112) • Anti-GAPDH (14C10) Rabbit mAb (CST, Cat. No. 2118L) • Anti-SHP2 rabbit mAb (CST, Cat. No. 37525) • Peroxidase Affinipure (HRP) Goat Anti-Rabbit IgG (Zen Bioscience, Cat. No. 511203) • TBST (Biosharp, Cat. No. BL601A) • ECL chemiluminescence kit (4A Biotech, Cat. No. 4AW011-200)
# • (1) Cell culture medium: IMIDM medium+10% FBS+1% Pen Strep; • (2) PBS buffer: PBS powder was dissolved in 2 L of ultrapure water and sterilized; • (3) Cell lysate: RIPA lysate buffer is added with protease inhibitors at a ratio of 1:1000 before use.
# (1) MV-411 cells were cultured in the cell culture medium, and then well-growing cells were selected and inoculated in a 12-well plate, with 1 mL/well and 1×10^6 cells/well. The plate was incubated overnight in a 5% CO2 cell incubator at 37° C.
# (2) 10 mM storage solution of each drug was prepared using dimethylsulfoxide (DMSO). The stock solution was diluted gradually with DMSO before use, and then 1 μL of the compound solution was added to the cell culture well (to ensure that the DMSO concentration in the culture system was […]), so that the final drug concentration is 100 nM, 10 nM, 3 nM, 1 nM, 0.3 nM, and 0.1 nM. Two wells were set for each concentration. The plate was gently shaken and mixed. Additionally, negative control wells (containing an equal amount of DMSO) and positive control wells were included.
# (3) After 24 hours of cultivation, the cells were lysed using RIPA cell lysate, and the proteins were extracted. The protein concentration was measured using a BCA assay kit. 5× concentrated protein buffer was loaded, heated at 100° C. for 5 min, and then the sample was stored at −20° C.
# (4) For each well, 30 μg of protein was loaded to polyacrylamide gel for electrophoresis.
# (5) The protein was transferred from polyacrylamide gel to PVDF membrane, and sealed at room temperature with 5% skimmed milk for 1 h, which was then incubated with the primary antibodies (Anti-SHP2 rabbit mAb and Anti-GAPDH rabbit mAb) at 4° C. overnight. The membrane was washed three times with TBST solution, 10 minutes for each time. After that, the membrane was incubated with the secondary antibodies (horseradish peroxidase labeled goat anti-rabbit IgG) at room temperature for 2 h, and then washed three times with TBST solution, 10 minutes for each time, followed by exposure.
# (6) The images were analyzed with Image J grayscale, and the degradation ratio of protein bands in the test group was calculated, based on the negative control group (DMSO) (100%).
# (7) Using the Dose-response-inhibition equation in the data processing software GraphPad Prism 8, the DC50 value was obtained (which represents the drug concentration corresponding to 50% degradation of the target protein).
# Finally, ECL detection solution was added for color development, and photos were taken with an automatic chemiluminescence instrument, so as to collect images and analyze them.
row,SMILES,DC50 [nM]
1,CC1(N)CCN(c2cnc(Sc3cccc(NC(=O)COCCOCCOCCOCC(=O)Nc4cccc5c4CN(C4CCC(=O)NC4=O)C5=O)c3)cn2)CC1 (centres unmarked) [Compound 17],> 1000
2,CC1(N)CCN(c2cnc(Sc3cccc(NC(=O)COCCOCCOCCOCC(=O)Nc4ccc5c(c4)CN(C4CCC(=O)NC4=O)C5=O)c3)cn2)CC1 (centres unmarked) [Compound 18],> 1000
3,CC1(N)CCN(c2cnc(Sc3cccc(NC(=O)CCC(=O)NCCOCCOCC(=O)NCc4ccc5c(c4)CN(C4CCC(=O)NC4=O)C5=O)c3)cn2)CC1 (centres unmarked) [Compound 19],> 1000
4,Cc1nc2cccc(NC(=O)COCCOCCNC(=O)CCC(=O)Nc3cccc(Sc4cnc(N5CCC(C)(N)CC5)cn4)c3)c2c(=O)n1C1CCC(=O)NC1=O (centres unmarked) [Compound 20],> 1000
5,CC1(N)CCN(c2cnc(Sc3cccc(NC(=O)CCC(=O)NCCOCCOCCOCC(=O)NCc4ccc5c(c4)CN(C4CCC(=O)NC4=O)C5=O)c3)cn2)CC1 (centres unmarked) [Compound 21],> 1000
6,CC1(N)CCN(c2cnc(Sc3cccc(NC(=O)CCC(=O)NCCOCCOCCOCC(=O)Nc4ccc5c(c4)C(=O)N(C4CCC(=O)NC4=O)C5)c3)cn2)CC1 (centres unmarked) [Compound 22],> 1000
7,CC1(N)CCN(c2cnc(Sc3cccc(NC(=O)[C@H]4CCC[C@@H]4C(=O)N4CCN(CCCCCCCCC(=O)Nc5ccc6c(c5)C(=O)N(C5CCC(=O)NC5=O)C6)CC4)c3)cn2)CC1 (some centres unmarked) [Compound 24],> 1000
8,CC1(N)CCN(c2cnc(Sc3cccc(NC(=O)[C@H]4CCC[C@@H]4C(=O)N4CCN(CCCCCCCCC(=O)NCc5ccc6c(c5)CN(C5CCC(=O)NC5=O)C6=O)CC4)c3)cn2)CC1 (some centres unmarked) [Compound 25],> 1000
9,CC1(N)CCN(c2cnc(Sc3cccc(NC(=O)CCC(=O)N4CC5(CN(CCCCCCCC(=O)Nc6ccc7c(c6)C(=O)N(C6CCC(=O)NC6=O)C7)C5)C4)c3)cn2)CC1 (centres unmarked) [Compound 26],> 1000
10,CC1(N)CCN(c2cnc(Sc3cccc(NC(=O)CCC(=O)NCCOCCOCC(=O)Nc4cccc5c4CN(C4CCC(=O)NC4=O)C5=O)c3)cn2)CC1 (centres unmarked) [Compound 29],> 1000
11,CC1(N)CCN(c2cnc(Sc3cccc(NC(=O)CCC(=O)NCCOCCOCC(=O)Nc4ccc5c(c4)CN(C4CCC(=O)NC4=O)C5=O)c3)cn2)CC1 (centres unmarked) [Compound 30],> 1000
12,CC1(N)CCN(c2cnc(Sc3cccc(NC(=O)CCC(=O)N4CC5(CN(CCCCCCCC(=O)NCc6ccc7c(c6)CN(C6CCC(=O)NC6=O)C7=O)C5)C4)c3)cn2)CC1 (centres unmarked) [Compound 31],> 1000
13,Cc1nc2cccc(NC(=O)CCCCCCCCN3CCN(C(=O)CCC(=O)Nc4cccc(Sc5cnc(N6CCC(C)(N)CC6)cn5)c4)CC3)c2c(=O)n1C1CCC(=O)NC1=O (centres unmarked) [Compound 35],> 1000
14,Cc1ncsc1-c1ccc([C@H](C)NC(=O)[C@@H]2C[C@@H](O)CN2C(=O)[C@@H](NC(=O)CCCCCCCCCCN2CCC(C(=O)Nc3cccc(Sc4cnc(N5CCC(C)(N)CC5)cn4)c3)CC2)C(C)(C)C)cc1 [Compound 36],> 1000
15,CC1(N)CCN(c2cnc(Sc3cccc(NC(=O)C4CCN(CCCCCCCCCCC(=O)NCc5ccc6c(c5)CN(C5CCC(=O)NC5=O)C6=O)CC4)c3)cn2)CC1 (centres unmarked) [Compound 37],> 1000
16,CC1(N)CCN(c2cnc(Sc3cccc(NC(=O)CCCCCCCCCCCCC(=O)NCc4ccc5c(c4)CN(C4CCC(=O)NC4=O)C5=O)c3)cn2)CC1 (centres unmarked) [Compound 41],> 1000
17,CC1(N)CCN(c2cnc(Sc3cccc(NC(=O)CCCCCCCCCCCCCCC(=O)NCc4ccc5c(c4)CN(C4CCC(=O)NC4=O)C5=O)c3)cn2)CC1 (centres unmarked) [Compound 42],> 1000
18,CC1(N)CCN(c2cnc(Sc3cccc(NC(=O)C4CN(CCCCCCCCCCC(=O)NCc5ccc6c(c5)CN(C5CCC(=O)NC5=O)C6=O)C4)c3)cn2)CC1 (centres unmarked) [Compound 43],> 1000
19,CC1(N)CCN(c2cnc(Sc3cccc(NC(=O)CCN4CC5(CCN(CCCCCC(=O)NCc6cccc7c6CN(C6CCC(=O)NC6=O)C7=O)C5)C4)c3)cn2)CC1 (centres unmarked) [Compound 45],100 to 1000

# Next, values leading:
row,DC50 [nM],SMILES
1,< 100,"CC1(CN)CCN(c2cnc(Sc3cccc(NC(=O)CCC(=O)N4CCN(CCCCCCCCC(=O)NCc5ccc6c(c5)CN(C5CCC(=O)NC5=O)C6=O)CC4)c3Cl)cn2)CC1 (centres unmarked) [Compound 15, 9-(4-(4-((3-((5-(4-(aminomethyl)-4-methylpyridin-1-yl)pyrazin-2-yl)thio)-2-chlorophenyl)amino)-4-oxobutyryl)piperazin-1-yl)-N-((2-(2,6-dioxopiperidin-3-yl)-1-oxoisoindol-5-yl)methyl)nonanamide]"
2,< 100,CC1(CN)CCN(c2cnc(Sc3cccc(NC(=O)CCC(=O)N4CCN(CCCCCCCCC(=O)Nc5ccc6c(c5)C(=O)N(C5CCC(=O)NC5=O)C6)CC4)c3Cl)cn2)CC1 (centres unmarked) [Compound 16]
3,< 100,CC1(N)CCN(c2cnc(Sc3cccc(NC(=O)CCC(=O)N4CCN(CCCCCCCCC(=O)NCc5ccc6c(c5)CN(C5CCC(=O)NC5=O)C6=O)CC4)c3)cn2)CC1 (centres unmarked) [Compound 27]
4,< 100,Cc1ncsc1-c1ccc([C@H](C)NC(=O)[C@@H]2C[C@@H](O)CN2C(=O)[C@@H](NC(=O)CCCCCCCCN2CCN(C(=O)[C@H]3CCC[C@@H]3C(=O)Nc3cccc(Sc4cnc(N5CCC(C)(N)CC5)cn4)c3)CC2)C(C)(C)C)cc1 [Compound 28]
5,< 100,Cc1ncsc1-c1ccc([C@H](C)NC(=O)[C@@H]2C[C@@H](O)CN2C(=O)[C@@H](NC(=O)CCCCCCCCN2CCN(C(=O)CCC(=O)Nc3cccc(Sc4cnc(N5CCC(C)(N)CC5)cn4)c3)CC2)C(C)(C)C)cc1 [Compound 34]
6,< 100,CC1(N)CCN(c2cnc(Sc3cccc(NC(=O)[C@@H]4C[C@H]4C(=O)N4CC5(CN(CCCCCCCC(=O)NCc6ccc7c(c6)CN(C6CCC(=O)NC6=O)C7=O)C5)C4)c3)cn2)CC1 (some centres unmarked) [Compound 38]
7,< 100,Cc1ncsc1-c1ccc([C@H](C)NC(=O)[C@@H]2C[C@@H](O)CN2C(=O)[C@@H](NC(=O)CCCCCCCN2CC3(C2)CN(C(=O)[C@@H]2C[C@H]2C(=O)Nc2cccc(Sc4cnc(N5CCC(C)(N)CC5)cn4)c2)C3)C(C)(C)C)cc1 [Compound 39]
8,< 100,CC1(N)CCN(c2cnc(Sc3cccc(NC(=O)CCCCCCCCCCC(=O)NCc4ccc5c(c4)CN(C4CCC(=O)NC4=O)C5=O)c3)cn2)CC1 (centres unmarked) [Compound 40]
9,100 to 1000,Cc1ncsc1-c1ccc([C@H](C)NC(=O)[C@@H]2C[C@@H](O)CN2C(=O)[C@@H](NC(=O)CCCCCCCCCCN2CC(C(=O)Nc3cccc(Sc4cnc(N5CCC(C)(N)CC5)cn4)c3)C2)C(C)(C)C)cc1 [Compound 44]
10,< 100,Cc1ncsc1-c1ccc([C@H](C)NC(=O)[C@@H]2C[C@@H](O)CN2C(=O)[C@@H](NC(=O)c2cnc(N3CCN(CCCCCCCCC(=O)Nc4cccc(Sc5cnc(N6CCC(C)(N)CC6)cn5)c4)CC3)nc2)C(C)(C)C)cc1 [Compound 47]

# Reference: US20240383908A1, “SYNTHESIS AND APPLICATION OF PHOSPHATASE DEGRADER” (HINOVA PHARMACEUTICALS INC., priority 2021, published 2024)
